The nature of this data set: Colloidal aggregation under TmPPase assay conditions (nephelometry). The format is physicochemical. Here is the method:
Aggregation data for 5, 12k and 12l (Figure S1)
Potential colloidal aggregation in the TmPPase model system was studied at five concentrations (50 µM, 25 µM, 10 µM, 5 µM, and 1 µM). The original assay conditions were simulated, and the light scattering of potential aggregates in the mixture was studied by nephelometric methods using Nepheloskan Ascent® (Labsystems, Finland). Aggregation of the blank and compounds 5, 12k and 12l were measured as triplicates from one independent experiment at three different voltages (300 V, 400 V and 500 V) at room temperature.
5 µM and 1 µM concentrations the obtained values were close to those observed by the blank, thereby […]
Figure S1. Aggregation data for compounds 5, 12k and 12l. The data, measured in relative nephelometric units (RNU), is shown as the mean ± SD and normalized to the blank.
(1 picture or pasted object on this page, not shown here)
Experimental procedures and characterization data
Commercial analogues were retrieved by screening the ZINC12 database1 (clean drug-like subset; downloaded on 27.04.2016) using a KNIME2 workflow connected to the RDKit3 nodes. The SAR analyses and docking studies (data not shown) underlying this work were conducted using the Schrödinger molecular modeling platform (Canvas and Glide modules, respectively)4 .
Compounds 1–7, 13–20 and 24 were obtained from commercial suppliers. Supporting Information, Table S1 summarizes the compounds tested. Compound purity was >95% as determined by LC-MS and characterized by HRMS. For all commercial compounds after the initial screen, purity was tested independently from the vendor specification (a few compounds of lower purity are reported only in Supporting Information). To evaluate potential aggregation of samples in the TmPPase based assay, aggregate formation in the assay conditions was studied at five concentrations (50 μM, 25 μM, 10 μM, 5 μM, and 1 μM) for compounds 5, 12k and 12l (Figure S1).
All chemicals used were commercially available. Reactions using anhydrous conditions were conducted in oven-dried (130 °C, >24 h) glassware, purged with argon prior to use. Microwave reactions were performed using a Biotage Initiator+ instrument (Uppsala, Sweden). The progress of the reactions was monitored by thin-layer chromatography on silica gel 60-F254 aluminum plates and visualized by using a dual short/long wave (254/366 nm) UV lamp. The combined organic solutions from extractions were dried over anhydrous Na2SO4, filtered and concentrated with a rotary evaporator at reduced pressure. Flash SiO2 column chromatography was performed with automated high performance flash chromatography, Biotage Isolera™ Spektra Systems with ACI™ and Assist (ISO-1SW Isolera One) equipped with a variable UV-VIS (200–800 nm) photodiode array (Uppsala, Sweden) using SNAP KP-SIL/Ultra 10 g or 25 g cartridges and the indicated mobile phase gradient.
The reactions were not optimized and all the yields are given for purified products.
Characterization of the synthesized products were done by NMR and MS analysis. 1H and 13C NMR spectra were acquired at 298 K on a Bruker Ascend 400 MHz – Avance III HD NMR spectrometer (Bruker Corporation, Billerica, MA, USA). Chemical shifts (δ) are reported in parts per million (ppm) relative to the residual solvent signals: CDCl3 7.26 and 77.16 ppm, CD3OD 3.31 and 49.00 ppm, DMSO-d6 2.50 and 39.52 ppm for 1H and 13C NMR, respectively. […] High resolution mass (HRMS-ESI) data was reported for the calculated and experimentally […]

Regarding `CC(C)(C)c1cc(-c2cc(C(=O)Oc3ccccc3Br)no2)cc(C(C)(C)C)c1` [Compound 12l], the “aggregation (light scattering)” value is listed as “only minor/no detectable aggregation” (at 10 µM, 5 µM and 1 µM); “showed aggregate formation” (at 50 µM and 25 µM).

The record behind these values is PMC7153278, “Discovery of Membrane-Bound Pyrophosphatase Inhibitors Derived from an Isoxazole Fragment” (ACS Medicinal Chemistry Letters, 2020).
